What was measured:
S. aureus MW2 wild-type = assay: Serial passage at suboptimal dose (10 generations), stk1 PCR and DNA sequencing; format: cell-based, Staphylococcus aureus; details: 25 μM Inh2-B1 alone or with 3 μM Ceftriaxone or 3 μM Cefotaxime, 10 generations
Method: Since the STK1 is not essential for bacterial survival and its absence results in retardation of growth, an end-point bactericidal assay was done, employing the Checkerboard titration method followed by a time-to-kill assay using the broth dilution method. The 96-well plate-based checkerboard titration assays were performed using the fixed number of CFUs of MW2 strain, and the survival of the bacteria was measured on solid agar plates as an end-point result. […] The cut-off value to designate clinical isolates of S. aureus for antibiotics, including Ceftriaxone (TX) and Cefotaxime (CT) as susceptible, is less than 4 μg/ml (i.e., <4.8 μM of TX, and <7 μM of CT). […] CFU counts of MW2-WT grown in the presence of various concentrations of Inh2-B1 were examined over a period of 16 h. […] Similarly, it was also determined CFU counts of MW2-WT and MW2ΔSTK1 strains each grown in the absence or the presence of 50 μM of Inh2-B1 and 1.5 μM Ceftriaxone (1 μg/ml) or […] Cefotaxime (1 μg/ml) for 16 h employing the broth dilution method. […] Further, to address whether MW2 or STK1 could become refractory to a potential combined therapy, the S. aureus MW2 wild-type strain was grown in the presence of suboptimal dose of Inh2-B1 alone and combination with Ceftriaxone and Cefotaxime (25 μM Inh2-B1 and 3 μM of Ceftriaxone or 3 μM Cefotaxime) for consecutive 10 generations.

S. pyogenes SP-STK = assay: In vitro autophosphorylation / kinase activity of SP-STK; format: biochemical
S. aureus MW2-WT = assay: S. aureus mouse septicemia model, therapeutic study; format: in vivo, CD-1 mice
Method: (§1) The virulence potential of the wild-type S. aureus MW2 wild-type and corresponding MW2ΔSTK1 and MW2ΔSTP1 mutants was assessed using the mouse-septicemia model. CD-1 mice (5 weeks old, 20-22 g. Charles River Laboratories, ten female mice/group and housed in a group of 5 mice/cage) were lightly anesthetized with isoflurane and injected retro-orbitally with the S. aureus MW2 or isogenic MW2Δstk1 mutant (4×10^8 CFU/0.1 ml of PBS). […] For therapeutic studies, the animals were first challenged with MW2-WT strain as described above and subsequently administered with antibiotic and/or small molecule compounds. The latter was started 4 h after the challenge and subsequently 12 h apart for 4 days post infection. Thus, Inh2-B1 (5 mg/kg body weight in 0.3 ml vehicle buffer), Ceftriaxone (10 and 25 mg/kg body weight in 0.3 ml vehicle buffer). Cefotaxime (10 mg/kg body weight), combination of Ceftriaxone (10 mg and 25 mg/kg body weight in 0.3 ml vehicle buffer) or Cefotaxime (10 mg/kg body weight) with Inh2-B1 (5 mg/kg body weight in 0.3 ml vehicle buffer), or 0.3 ml of vehicle-buffer (50 mM Tris/HCl, pH 8.8, 1.67% [v/v] DMSO). Early removal and euthanasia criteria were applied to all experimental mice showing penultimate sign(s) of the unrecoverable stage of illness, including ruffled skin with a hunch back, loss of more than 20% of body mass as compared to unchallenged mice receiving mock treatment, dyspnea, and labored gasping. All experiments were performed twice. Data were combined, and percentage survival in each group was statistically evaluated by the Log-Rank test (Kaplan-Meier) using the GraphPad Prism 6 software. P<0.05 was treated as a significant difference. On Day 3 P.I., 3-6 mice from different groups receiving treatment with a single antibiotic or combination therapy were euthanized and sacrificed, and kidneys were […] for determining the bacterial load, which was determined by counting the colony forming units in the homogenized tissue in sterile PBS buffer.

[1] = test system: S. aureus MW2-WT, MW2ΔSTK1 and MW2ΔSTP1 colonies; assay: Colony hemolysis pattern on TSA blood agar plates; format: cell-based, Staphylococcus aureus; details: 50 μM Inh2-B1, MW2-WT, MW2ΔSTK1 or MW2ΔSTP1
Excerpt: See the increased hemolysis around the colonies of the MW2ΔSTK1 mutant and absence of hemolysis around those of MW2ΔSTP1 mutant as depicted in the enlarged portion of certain representative colonies shown under each panel of the strain. A one centimeter bar is included to facilitate the determination of the relative size of colonies and corresponding hemolytic zones around them.

S. aureus STK1 / STKK1 = assay: Solid-phase ATP affinity chromatography, elution of bound kinase by inhibitor, Western blot; format: binding
Method: (§2) An overnight culture of S. aureus MW2 strain was centrifuged, and the resulting bacterial pellet was resuspended in lysostaphin digestion buffer (50 mM Tris/HCl buffer, pH 7.5, containing 5 μg/ml DNAse/RNAse and protease inhibitor cocktail) in 1/10 the volume of the original culture volume. The latter was then subjected to lysostaphin treatment (15 U/ml). The lysostaphin digest was sonicated (5 sec pulse at every 10 sec for 10 min at 50% of 130 W, […]), and the debris free whole cell lysate was obtained after centrifugation (10.000×g, 10 min, 4° C.). […] The column was then washed with ten column volumes of binding buffer. Subsequently, the bound proteins were eluted with the 10-column volume of buffer containing 50 μM Inh-2 and Inh2-B1. S. aureus crude lysate, the last fraction of the column washing step, and eluted fractions were resolved by SDS-PAGE and electroblotted onto a PVDF membrane. […] A similar experiment was performed using S. pyogenes whole cell lysates obtained from phage lysin-digested S. pyogenes M1T1 strain using the anti-SP-STK antibody as described previously using to determine the specificity of the inhibitor for S. aureus STK1.

[2] = test system: S. pyogenes SP-STK / SP-STKK; assay: as above; format: binding; details: purified recombinant protein
Method: as §2

[3] = Tolerability in mice treated with compound only; format: in vivo, CD-1 mice; details: 5 mg/kg i.p., ten-day observation
Method: as §1, with “Cefotaxime (10 mg/kg body weight), combination of Ceftriaxone (10 mg and 25 mg/kg body weight in 0.3 ml vehicle buffer) or Cefotaxime (10 mg/kg body weight) with Inh2-B1 (5 mg/kg body weight in 0.3 ml vehicle buffer), or 0.3 ml of vehicle-buffer (50 mM Tris/HCl, pH 8.8, 1.67% [v/v] DMSO). Early removal and euthanasia criteria were applied to all experimental mice showing penultimate sign(s) of the unrecoverable stage of illness, including ruffled skin with a hunch back, loss of more than 20% of body mass as compared to unchallenged mice receiving mock treatment, dyspnea, and labored gasping. All experiments were performed twice.” left out, “P<0.05 was treated as a significant difference.” left out

Detroit 562 cells = assay: LDH release cytotoxicity assay; format: cell-based, human; details: 1.56-100 μM, 24 h
Method: (§3) Various concentrations (1.56-100 μM) of the small molecule compounds Inh2-B1 were tested for their cytotoxicity by incubating them for 24 h in the cell lines mentioned above. The cytotoxicity of compounds was determined by measuring the activity of lactate dehydrogenase (LDH) released from the damaged cells during incubation. The LDH assay was performed in triplicate wells. At the end of incubation, the plates were lightly centrifuged, and the culture supernatants were examined for the presence of LDH activity using Cytotoxicity Detection Kit (Promega) per the manufacturer's instructions. LDH activity was detected spectrophotometrically (Molecular device, 490 nm) and normalized to the total LDH activity (100%) in cell lysate of the untreated cells. Background value obtained with untreated culture supernatant was subtracted before data evaluation.

BEAS-2B cells = assay: LDH release cytotoxicity assay; format: cell-based, human; details: 1.56-100 μM, 24 h
Method: as §3

[4] = Inh2-B1 5 mg/kg plus Cefotaxime 10 mg/kg

Question: Which “changes in the stk1 gene of the passaged strain” value (S. aureus MW2 wild-type) does the source give for `COC(=O)c1ccc2c(=O)[nH]c3c(C(=O)Nc4ccccc4)sc(=S)n3c2c1` [Inh2-B1, Methyl 5-oxo-3-(phenylcarbamoyl)-1-thioxo-4,5dihydro[1,3]thiazolo[3,4-a]quinazoline-8-carboxylate] here?
Answer: did not show any changes in the stk1 gene

Question: What about the “inhibition of the kinase activity of SP-STK of S. pyogenes” value (S. pyogenes SP-STK) of the same compound?
Answer: did not inhibit the kinase activity

Question: What about the “number of survived animals at the end of 10 days, Cefotaxime combination compared with Ceftriaxone combination” value (S. aureus MW2-WT; [4]) of the same compound?
Answer: significantly low

Question: What about the “survival of mice, combination therapy with Cefotaxime (Inh2-B1+CT)” value (S. aureus MW2-WT; [4]) of the same compound?
Answer: significantly prolonged the survival of mice

Question: What about the “survival, combination therapy with Ceftriaxone” value (S. aureus MW2-WT; Inh2-B1 5 mg/kg plus Ceftriaxone 10 or 25 mg/kg i.p., ten days) of the same compound?
Answer: 60%

Question: What about the “S. aureus MW2 burden in kidneys” value (S. aureus MW2-WT; day 3 P.I., combined therapy (Inh2-B1 with Ceftriaxone or Cefotaxime) vs single or no therapy) of the same compound?
Answer: significantly low

Question: What about the “hemolysis pattern of colonies” value [1] of the same compound?
Answer: did not show any changes in the hemolysis pattern

Question: And the “elution of STK1 bound to ATP-column, whole cell lysate of S. aureus MW2” value (S. aureus STK1 / STKK1; eluted with 50 μM inhibitor, anti-STK1 immunoblot)?
Answer: presence of STK1

Question: What about the “elution of purified recombinant S. aureus STKK1 from ATP-column” value (S. aureus STK1 / STKK1; purified recombinant protein) of the same compound?
Answer: could elute only the S. aureus STKK1 protein

Question: And the “elution of purified recombinant S. pyogenes SP-STKK from ATP-column” value [2]?
Answer: not S. pyogenes SP-STKK protein

Question: What about the “signs of illness in mice treated with only the compound” value [3] of the same compound?
Answer: no morbid signs of illness

Question: And the “survival of mice treated with only the compound” value [3]?
Answer: survived all throughout the observation period

Question: What about the “lysis (LDH release)” value (Detroit 562 cells) of the same compound?
Answer: less than 5%

Question: What about the “cytotoxicity (LDH release)” value (BEAS-2B cells) of the same compound?
Answer: ~15%
